Source: ChEMBL document CHEMBL6134830, “Naturally inspired chimeric quinolone derivatives to reverse bacterial drug resistance” (Eur J Med Chem, 2025)
Converted amounts (≈) assume the structure as drawn. The source made the active and inactive calls. No cut-off for these calls is given here.

What was measured:
Staphylococcus aureus [1] = assay: Antimicrobial activity against Staphylococcus aureus ATCC 25923 assessed as inhibition of bacterial growth measured after 20 hrs by CLSI protocol based Muller Hinton broth assay; assay type: functional
Enterococcus gallinarum = assay: Antimicrobial activity against Enterococcus gallinarum ATCC 49573 assessed as inhibition of bacterial growth measured after 20 hrs by CLSI protocol based Muller Hinton broth assay; assay type: functional
Staphylococcus aureus [2] = assay: Antimicrobial activity against Methicillin-resistant Staphylococcus aureus ATCC 43300 assessed as inhibition of bacterial growth measured after 20 hrs by CLSI protocol based Muller Hinton broth assay; assay type: functional
Enterococcus faecalis = assay: Antimicrobial activity against Enterococcus faecalis ATCC 19433 assessed as inhibition of bacterial growth measured after 20 hrs by CLSI protocol based Muller Hinton broth assay; assay type: functional
Escherichia coli [3] = assay: Antimicrobial activity against Escherichia coli ATCC 25922 assessed as inhibition of bacterial growth measured after 20 hrs by CLSI protocol based Muller Hinton broth assay; assay type: functional
Pseudomonas aeruginosa = assay: Antimicrobial activity against Pseudomonas aeruginosa ATCC 27853 assessed as inhibition of bacterial growth measured after 20 hrs by CLSI protocol based Muller Hinton broth assay; assay type: functional
Acinetobacter baumannii = assay: Antimicrobial activity against Acinetobacter baumannii ATCC 19606 assessed as inhibition of bacterial growth measured after 20 hrs by CLSI protocol based Muller Hinton broth assay; assay type: functional
[4] = Hemolytic activity in Sprague-Dawley rat Red blood cells at 200 ug/ml incubated for 1 hr by absorbance based analysis; assay type: toxicity, cell-based; details: erythrocyte, dose 200 µg/ml
L929 = assay: Cytotoxicity against mouse L929 cells assessed as reduction in cell viability at 100 microg/mL incubated for 24 hrs by MTT assay; assay type: toxicity, cell-based; details: l929, 24 h, dose 100 µg/ml
Staphylococcus aureus [5] = assay: Antimicrobial activity against Methicillin-resistant Staphylococcus aureus assessed as reduction in bacterial load at 4 times MIC measured after 4 hrs by time-kill kinetics assay; assay type: functional
Staphylococcus aureus [6] = assay: Antimicrobial activity against Methicillin-resistant Staphylococcus aureus assessed as reduction in bacterial growth at 4 times MIC measured after 8 hrs by time-kill kinetics assay relative to control; assay type: functional; design: scale not given: the % may be the effect or the level left
Staphylococcus aureus [7] = assay: Antimicrobial activity against Methicillin-resistant Staphylococcus aureus ATCC 33591 measured after 5 to 25 passages at sub-MIC incubated for 12 hrs; assay type: functional, organism-based
Escherichia coli [8] = assay: Antimicrobial activity against Escherichia coli ATCC 25922 measured after 5 to 25 passages at sub-MIC incubated for 12 hrs; assay type: functional, organism-based
Cell membrane [9] = assay: Disruption of cell membrane in methicillin-resistant Staphylococcus aureus assessed as PI-positive bacteria at 8 times MIC measured after 30 mins by PI staining based flow cytometry analysis (reference value: 7.49 %); assay type: subcellular
Cell membrane [10] = assay: Disruption of cell membrane in methicillin-resistant Staphylococcus aureus assessed as PI-positive bacteria at 2 times MIC measured after 30 mins by PI staining based flow cytometry analysis (reference value: 7.49 %); assay type: subcellular
Cell membrane [11] = assay: Disruption of cell membrane in methicillin-resistant Staphylococcus aureus assessed as PI-positive bacteria at 4 times MIC measured after 30 mins by PI staining based flow cytometry analysis (reference value: 7.49 %); assay type: subcellular
Cell membrane [12] = assay: Disruption of cell membrane in methicillin-resistant Staphylococcus aureus at 4 times MIC measured after 4 hrs by scanning electron microscopic analysis; assay type: subcellular
Cell membrane [13] = assay: Disruption of cell membrane in methicillin-resistant Staphylococcus aureus at 8 times MIC measured after 4 hrs by scanning electron microscopic analysis; assay type: subcellular
Staphylococcus aureus [14] = assay: Antibacterial activity against methicillin-resistant Staphylococcus aureus infected in ICR mouse model of subcutaneous abscess assessed as effect on lesions at 25 mg/kg, sc measured at 48 hrs post-injection; assay type: functional, organism-based
Staphylococcus aureus [15] = assay: Antibacterial activity against methicillin-resistant Staphylococcus aureus infected in ICR mouse model of subcutaneous abscess assessed as reduction in infiltration of inflammatory cells at 25 mg/kg, sc measured at 48 hrs post-injection by H and E/Masson staining based analysis; assay type: functional, organism-based
Mus musculus [16] = assay: Anti-inflammatory activity against subcutaneous abscess ICR mouse model infected with methicillin-resistant Staphylococcus aureus assessed as reduction in TNF-alpha level at 25 mg/kg, sc measured at 48 hrs post-injection by ELISA method; assay type: functional, organism-based
Mus musculus [17] = assay: Anti-inflammatory activity against subcutaneous abscess ICR mouse model infected with methicillin-resistant Staphylococcus aureus assessed as reduction in IL-6 level at 25 mg/kg, sc measured at 48 hrs post-injection by ELISA method; assay type: functional, organism-based
Staphylococcus aureus [18] = assay: Antibacterial activity against methicillin-resistant Staphylococcus aureus infected in ICR mouse model of subcutaneous abscess assessed as reduction in IL-6 level at 25 mg/kg, sc measured at 48 hrs post-injection by ELISA method; assay type: functional, organism-based
Staphylococcus aureus [19] = assay: Antibacterial activity against methicillin-resistant Staphylococcus aureus infected in ICR mouse model of subcutaneous abscess assessed as bacterial elimation at 25 mg/kg, sc measured at 48 hrs post-injection relative to control; assay type: functional
Staphylococcus aureus [20] = assay: Antibacterial activity against methicillin-resistant Staphylococcus aureus infected in ICR mouse model of subcutaneous abscess assessed as bacterial load at 25 mg/kg, sc measured at 48 hrs post-injection; assay type: functional
[21] = Toxicity in ICR mouse assessed as compatible skin at 25 mg/kg, sc administered as single dose and measured at 2 hrs post-infection by H and E staining based analysis; assay type: organism-based; details: in vivo
[22] = Toxicity in ICR mouse assessed as pathological change in skin at 25 mg/kg, sc administered as single dose and measured at 2 hrs post-infection by H and E staining based analysis; assay type: organism-based; details: in vivo
[23] = Toxicity in ICR mouse assessed as pathological change in heart at 25 mg/kg, sc administered as single dose and measured at 2 hrs post-infection by H and E staining based analysis; assay type: organism-based; details: in vivo
[24] = Toxicity in ICR mouse assessed as pathological change in liver at 25 mg/kg, sc administered as single dose and measured at 2 hrs post-infection by H and E staining based analysis; assay type: organism-based; details: in vivo
[25] = Toxicity in ICR mouse assessed as pathological change in spleen at 25 mg/kg, sc administered as single dose and measured at 2 hrs post-infection by H and E staining based analysis; assay type: organism-based; details: in vivo
[26] = Toxicity in ICR mouse assessed as pathological change in lung at 25 mg/kg, sc administered as single dose and measured at 2 hrs post-infection by H and E staining based analysis; assay type: organism-based; details: in vivo
[27] = Toxicity in ICR mouse assessed as pathological change in kidney at 25 mg/kg, sc administered as single dose and measured at 2 hrs post-infection by H and E staining based analysis; assay type: organism-based; details: in vivo

CCCCCCCCCNC(=O)[C@H](CCCCN)NC(=O)[C@H](CCCNC(=N)N)NC(=O)[C@H](CCCCN)NC(=O)c1ccc(C(=O)N2CCN(c3cc4c(cc3F)c(=O)c(C(=O)O)cn4C3CC3)CC2)cc1
MIC (Staphylococcus aureus [1]): 1.56 µg/mL (≈ 1.53 µM) | MIC (Enterococcus gallinarum): 12.5 µg/mL (≈ 12.3 µM) | MIC (Staphylococcus aureus [2]): 6.25 µg/mL (≈ 6.14 µM) | MIC (Enterococcus faecalis): 12.5 µg/mL (≈ 12.3 µM) | MIC (Escherichia coli [3]): 3.12 µg/mL (≈ 3.07 µM) | MIC (Pseudomonas aeruginosa): 3.12 µg/mL (≈ 3.07 µM) | MIC (Acinetobacter baumannii): 6.25 µg/mL (≈ 6.14 µM) | Activity [4]: Non-toxic | Activity (L929): Non-toxic | Activity (Staphylococcus aureus [5]): 3.6 log10CFU/ml | Activity (Staphylococcus aureus [6]): 100% | Activity (Staphylococcus aureus [7]): Active | Activity (Escherichia coli [8]): Active | Activity (Cell membrane [9]): 58.4% | Activity (Cell membrane [10]): 12% | Activity (Cell membrane [11]): 26.8% | Activity (Cell membrane [12]): Active | Activity (Cell membrane [13]): Active | Activity (Staphylococcus aureus [14]): Active | Activity (Staphylococcus aureus [15]): Active | Activity (Mus musculus [16]): Active | Activity (Mus musculus [17]): Active | Activity (Staphylococcus aureus [18]): Active | Activity (Staphylococcus aureus [19]): 99.99% | Activity (Staphylococcus aureus [20]): 4.4 log10CFU/ml | Activity [21]: Non-toxic | Activity [22]: Non-toxic | Activity [23]: Non-toxic | Activity [24]: Non-toxic | Activity [25]: Non-toxic | Activity [26]: Non-toxic | Activity [27]: Non-toxic
